Test results published in PubChem BioAssay (NCI).
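1) Cells in 96-well plates. 2) Compound, 48 h, 5 concentrations. 3) Linear interpolation between surrounding doses. 4) Unreached endpoint = highest concentration. Here, GI50 denotes the concentration required for 50% inhibition of growth. TGI marks complete inhibition of growth.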

Columns and labels:
Experiment in all cases: NCI-60 cell line screen, 48 h
HCT-116 colon = test system: HCT-116 colon
SNB-19 CNS = test system: SNB-19 CNS
LOX IMVI melanoma = test system: LOX IMVI melanoma
NCI/ADR-RES ovarian = test system: NCI/ADR-RES ovarian
ACHN renal = test system: ACHN renal
SK-MEL-5 melanoma = test system: SK-MEL-5 melanoma
CAKI-1 renal = test system: CAKI-1 renal
K-562 leukemia = test system: K-562 leukemia
HT29 colon = test system: HT29 colon
SW-620 colon = test system: SW-620 colon

| Compound | TGI (HCT-116 colon) | TGI (SNB-19 CNS) | TGI (LOX IMVI melanoma) | TGI (NCI/ADR-RES ovarian) | TGI (ACHN renal) | TGI (SK-MEL-5 melanoma) | TGI (CAKI-1 renal) | TGI (K-562 leukemia) | TGI (HT29 colon) | TGI (SW-620 colon) | GI50 (SNB-19 CNS) | GI50 (NCI/ADR-RES ovarian) | GI50 (ACHN renal) | GI50 (SK-MEL-5 melanoma) | GI50 (CAKI-1 renal) | GI50 (K-562 leukemia) | GI50 (HCT-116 colon) | GI50 (LOX IMVI melanoma) | GI50 (SW-620 colon) | GI50 (HT29 colon) |
| --- | --- | --- | --- | --- | --- | --- | --- | --- | --- | --- | --- | --- | --- | --- | --- | --- | --- | --- | --- | --- |
| CCn1cc(C(c2ccc(Cl)cc2)n2ccnc2)c2cc(Br)ccc21 (stereo not given) | 33.8 µM | 28.3 µM | 28.2 µM | 42.7 µM | 25.9 µM | 31.2 µM | 27.3 µM | 33.5 µM | 22.3 µM | – | – | – | – | – | – | – | – | – | – | – |
| COC1OC(=O)[C@H]2O[N+]([O-])=C(C)[C@@H]12 (stereo not given in full) | > 100 µM | > 100 µM | > 100 µM | > 100 µM | – | > 100 µM | > 100 µM | > 100 µM | > 100 µM | > 100 µM | – | – | – | – | – | – | – | – | – | – |
| C/C(=N\NC(=S)NC(C)C)c1nc2ncccc2[nH]1 | > 100 µM | > 91.6 µM | > 100 µM | > 100 µM | > 100 µM | > 100 µM | > 89.1 µM | > 100 µM | > 100 µM | > 100 µM | – | – | – | – | – | – | – | – | – | – |
| O=C1CC(=O)N(c2ccccc2)N1/C(=C/c1ccccc1)c1ccccc1 | 32 µM | 43.6 µM | 3.06 µM | 61.5 µM | 89.5 µM | 28.2 µM | 33.7 µM | > 100 µM | 44.2 µM | 37.7 µM | – | – | – | – | – | – | – | – | – | – |
| C=CC(=O)Nc1cccc(-c2nc(SC)nc(Nc3ccccc3OC)c2C#N)c1 | – | 6.51 µM | – | 6.99 µM | 3.32 µM | 4.32 µM | 4.3 µM | 5.62 µM | – | – | 2.31 µM | 2.46 µM | 1.7 µM | 1.9 µM | 1.71 µM | 2.03 µM | – | – | – | – |
| Nc1ccccc1Nc1ccccc1C(=O)[O-].Nc1ccccc1Nc1ccccc1C(=O)[O-].[Cu+2] | > 100 µM | > 100 µM | – | – | > 100 µM | > 100 µM | > 100 µM | > 100 µM | > 100 µM | > 100 µM | – | – | – | – | – | – | – | – | – | – |
| O=C(NS(=O)(=O)Nc1ccc(Cl)cc1)OCc1ccc(Cl)cc1Cl | 45.5 µM | 48.4 µM | 57.3 µM | 49.9 µM | > 100 µM | 39.1 µM | – | > 100 µM | 51.2 µM | > 100 µM | – | – | – | – | – | – | – | – | – | – |
| CSC1=Nc2ccccc2N(C)c2c1c(-c1ccccc1)nn2C | > 100 µM | – | > 100 µM | > 100 µM | > 100 µM | 43.4 µM | > 100 µM | 55.9 µM | > 100 µM | > 100 µM | – | – | – | – | – | – | – | – | – | – |
| O=[Se]([O-])c1ccccc1.O=[Se]([O-])c1ccccc1.[OH3+].[OH3+].[Pt+2] | 9.5 µM | 33.7 µM | 19.2 µM | 9.89 µM | – | 30.5 µM | > 26.4 µM | 34.6 µM | 14.6 µM | 25.2 µM | 10.9 µM | 2.8 µM | – | 13.9 µM | 11 µM | 10 µM | 3.14 µM | 3.42 µM | 5.24 µM | 3.09 µM |
| CCC(=O)C(c1ccccc1)c1ccccn1 (stereo not given) | > 100 µM | > 100 µM | > 100 µM | > 100 µM | > 100 µM | > 100 µM | > 100 µM | – | > 100 µM | > 100 µM | – | – | – | – | – | – | – | – | – | – |
| O=C(Nc1ccc(I)cc1C(=O)NCCO)c1cccs1 | > 100 µM | > 100 µM | > 100 µM | > 100 µM | > 100 µM | > 100 µM | > 100 µM | > 100 µM | > 100 µM | > 100 µM | – | – | – | – | – | – | – | – | – | – |
| N#Cc1c(NC(=S)NC(=O)c2ccccc2)nc2c(c1-c1ccccc1)CCC2 | > 100 µM | > 100 µM | > 100 µM | > 100 µM | > 100 µM | > 100 µM | > 100 µM | > 100 µM | > 100 µM | > 100 µM | – | – | – | – | – | – | – | – | – | – |
| CC(C)CC(N)C(=O)OCN1C(=O)C2C3C=CC(C2C1=O)C1C2C(=O)N(COC(=O)C(N)CC(C)C)C(=O)C2C31 (stereo not given) | > 60.5 µM | > 100 µM | > 58.1 µM | – | > 100 µM | > 100 µM | > 100 µM | > 100 µM | > 100 µM | > 75.6 µM | – | – | – | – | – | – | – | – | – | – |
| Cc1[nH]c(/C=C2\C(=O)Nc3ccc(S(=O)(=O)Cc4c(Cl)cccc4Cl)cc32)c(C)c1C(=O)N1CCC[C@@H]1CN1CCCC1 | – | 6.74 µM | 3.22 µM | > 24.4 µM | 3.07 µM | 15.8 µM | 13.6 µM | > 100 µM | 3.07 µM | 3.29 µM | 2.41 µM | 2.96 µM | 1.63 µM | 2.58 µM | 5.05 µM | 1.63 µM | – | 1.73 µM | 1.78 µM | 1.62 µM |
